Reference: patent US7238685B2, “Benzo-fused heterocycles as endothelin antagonists” (Actelion Pharmaceuticals Ltd., priority 2001, dated 2007)
Where two headings read alike, the source gives them in different places.

Legend:
[1] = biological target: T1, rat aortic rings (ETA receptors) (Rattus norvegicus, UniProt P26684); test: Inhibition of endothelin-1-induced contractions on isolated rat aortic rings
T1 construct: from tissue; host or cells: thoracic aorta rings of adult Wistar rats, endothelium removed
T1 sequence (P26684 21-426): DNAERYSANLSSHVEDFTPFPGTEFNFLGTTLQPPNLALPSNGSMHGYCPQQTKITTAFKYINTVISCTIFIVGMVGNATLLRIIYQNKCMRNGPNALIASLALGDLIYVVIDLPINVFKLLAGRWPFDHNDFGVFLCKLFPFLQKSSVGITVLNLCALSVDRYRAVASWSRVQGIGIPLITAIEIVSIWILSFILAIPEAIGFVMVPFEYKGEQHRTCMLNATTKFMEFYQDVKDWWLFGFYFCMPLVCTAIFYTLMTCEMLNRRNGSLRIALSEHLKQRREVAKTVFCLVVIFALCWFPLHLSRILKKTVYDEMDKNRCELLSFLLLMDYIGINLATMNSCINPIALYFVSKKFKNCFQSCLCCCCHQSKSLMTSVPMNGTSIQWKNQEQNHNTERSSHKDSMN

[2] = biological target: T2, rat tracheal rings (ETB receptors) (Rattus norvegicus, UniProt P21451); test: Inhibition of sarafotoxin S6c-induced contractions on isolated rat tracheal rings
T2 construct: from tissue; host or cells: tracheal rings of adult Wistar rats, epithelium removed
T2 sequence (P21451 27-442): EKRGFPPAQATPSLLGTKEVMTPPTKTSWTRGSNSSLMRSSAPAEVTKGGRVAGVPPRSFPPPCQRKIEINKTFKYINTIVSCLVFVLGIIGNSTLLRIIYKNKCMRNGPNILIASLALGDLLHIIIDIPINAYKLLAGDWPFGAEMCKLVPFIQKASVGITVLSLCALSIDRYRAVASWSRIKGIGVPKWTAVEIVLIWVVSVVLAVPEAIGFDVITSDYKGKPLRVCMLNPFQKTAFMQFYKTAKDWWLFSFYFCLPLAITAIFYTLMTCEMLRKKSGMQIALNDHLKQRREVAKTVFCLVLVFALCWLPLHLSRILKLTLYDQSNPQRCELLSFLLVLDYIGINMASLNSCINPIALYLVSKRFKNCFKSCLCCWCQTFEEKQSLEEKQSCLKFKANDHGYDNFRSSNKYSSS
Protocol: 2) Inhibition of Endothelin-induced Contractions on Isolated Rat Aortic Rings (ETA Receptors) and Rat Tracheal Rings (ETB Receptors):
The functional inhibitory potency of the endothelin antagonists was assessed by their inhibition of the contraction induced by endothelin-1 on rat aortic rings (ETA receptors) and of the contraction induced by sarafotoxin S6c on rat tracheal rings (ETB receptors). Adult Wistar rats were anesthetized and exsanguinated. The thoracic aorta or trachea were excised, dissected and cut in 3–5 mm rings. The endothelium/epithelium was removed by gentle rubbing of the intimal surface. Each ring was suspended in a 10 ml isolated organ bath filled with Krebs-Henseleit solution (in mM; NaCl 115, KCl 4.7, MgSO4 1.2, KH2PO4 1.5, NaHCO3 25, CaCl2 2.5, glucose 10) kept at 37° C. and gassed with 95% O2 and 5% CO2. The rings were connected to force transducers and isometric tension was recorded (EMKA Technologies SA, Paris, France). The rings were stretched to a resting tension of 3 g (aorta) or 2 g (trachea). […] The functional inhibitory potency of the test compound was assessed by calculating the concentration ratio, i.e. the shift to the right of the EC50 induced by different concentrations of test compound. EC50 is the concentration of endothelin needed to get a half-maximal contraction, pA2 is the negative logarithm of the antagonist concentration which induces a two-fold shift in the EC50 value.

[3] = biological target: T3, human recombinant ETA receptors (Homo sapiens, UniProt P25101); test: Inhibition of endothelin binding to membranes from CHO cells carrying human ET receptors (ETA); settings: read-out: IC50 ETA
T3 construct: expressed in transfected cells; host or cells: CHO cells (microsomal membranes)
T3 sequence (P25101 21-427): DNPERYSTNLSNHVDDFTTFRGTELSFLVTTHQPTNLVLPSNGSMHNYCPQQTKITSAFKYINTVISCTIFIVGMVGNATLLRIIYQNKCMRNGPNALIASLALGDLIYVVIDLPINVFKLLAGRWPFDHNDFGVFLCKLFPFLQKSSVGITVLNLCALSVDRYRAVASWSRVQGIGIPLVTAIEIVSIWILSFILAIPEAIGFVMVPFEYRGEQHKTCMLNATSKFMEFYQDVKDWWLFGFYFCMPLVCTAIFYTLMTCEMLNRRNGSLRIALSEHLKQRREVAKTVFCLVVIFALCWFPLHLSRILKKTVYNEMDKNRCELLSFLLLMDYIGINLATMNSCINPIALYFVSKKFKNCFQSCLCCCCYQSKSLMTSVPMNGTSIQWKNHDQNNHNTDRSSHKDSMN

[4] = biological target: T4, human recombinant ETB receptors (Homo sapiens, UniProt P24530); test: Inhibition of endothelin binding to membranes from CHO cells carrying human ET receptors (ETB); settings: read-out: IC50 ETB
T4 construct: expressed in transfected cells; host or cells: CHO cells (microsomal membranes)
T4 sequence (P24530 27-442): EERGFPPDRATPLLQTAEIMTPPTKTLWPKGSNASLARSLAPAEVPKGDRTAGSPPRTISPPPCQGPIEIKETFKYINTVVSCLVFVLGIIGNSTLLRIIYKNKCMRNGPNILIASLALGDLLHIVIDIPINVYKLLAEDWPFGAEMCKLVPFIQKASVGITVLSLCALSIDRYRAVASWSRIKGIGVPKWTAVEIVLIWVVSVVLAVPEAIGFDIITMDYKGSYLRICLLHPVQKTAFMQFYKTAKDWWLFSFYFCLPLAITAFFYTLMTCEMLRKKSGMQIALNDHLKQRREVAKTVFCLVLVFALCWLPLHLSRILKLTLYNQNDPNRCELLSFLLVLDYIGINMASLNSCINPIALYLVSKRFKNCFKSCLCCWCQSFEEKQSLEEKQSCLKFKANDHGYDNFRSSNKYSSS

| Compound | Kb ([1]; read-out: pA2 (aortic rings) (converted)) | Kb [2] | IC50 [3] | IC50 [4] | Kb [1] |
| --- | --- | --- | --- | --- | --- |
| COc1cc(OC)nc(O[C@H](C(=O)O)[C@@]2(c3ccccc3)NCC(=O)N(Cc3c(F)cc(F)cc3F)c3ccccc32)n1 (racemic) [Example 48] | 6.46 nM | 525 nM |  |  |  |
| Cc1cc(C)nc(O[C@H](C(=O)O)[C@@]2(c3ccccc3)NCC(=O)N(Cc3c(F)cc(F)cc3F)c3ccccc32)n1 (racemic) [Example 107, (±)-(S*)-(4,6-dimethyl-pyrimidin-2-yloxy)-[(5S*)-2-oxo-5-phenyl-1-(2,4,6-trifluoro-benzyl)-2,3,4,5-tetrahydro-1H-benzo[e][1,4]diazepin-5-yl]-acetic acid] |  | 661 nM | 1 nM | 42 nM | 6.61 nM |
| Cc1cc(C)nc(O[C@H](C(=O)O)[C@@]2(c3ccccc3)NCC(=O)N(Cc3c(Cl)cccc3Cl)c3ccccc32)n1 (racemic) [Example 115] |  | 27.5 nM | 1 nM | 3 nM | 2.82 nM |
| Cc1cc(C)nc(O[C@H](C(=O)O)[C@@]2(c3cccc(-c4ccccc4)c3)NCC(=O)N(Cc3c(F)cc(F)cc3F)c3ccccc32)n1 (racemic) [Example 211, (±)-(S*)-[(5S*)-5-biphenyl-3-yl-2-oxo-1-(2,4,6-trifluoro-benzyl)-2,3,4,5-tetrahydro-1H-benzo[e][1,4]di-azepin-5-yl]-(4,6-dimethyl-pyrimidin-2-yloxy)-acetic acid] |  | 85.1 nM | 6 nM | 62 nM | 0.912 nM |
